Results on one compound are retold here after US20240018207A1, “INTERFERON TAU FC-FUSION PROTEINS AND METHODS FOR TREATING CORONAVIRUS INFECTIONS” (Southlake Pharmaceuticals, Inc., priority 2020, published 2024).

The term IC50 denotes the concentration needed to halve the response being measured.

Series [1] concerns SARS CoV-2 (USA_WA1/2020). The series is described as follows: microbe, parasite or virus in culture. The series is classed as cell-based. Particulars: Severe acute respiratory syndrome coronavirus 2, Vero C1008; SARS-CoV-2 CPE assay, reference compounds.
Series [2] has as its system hCoV-229E. The series is described as follows: hCoV-229E CPE assay in MRC5 cells. It counts as cell-based. The procedure: The method of this CPE assay is as follows: In 96-well plates, MRC5 cells were seeded at an appropriate density and cultured at 37° C. and 5% CO2 overnight. […] Then medium in each well was replenished with medium containing serially diluted samples and virus. […] Cytotoxicity of the compounds was assessed under the same conditions, but without virus infection, in parallel. Cell viability was measured by CellTiter Glo following the manufacturer's manual. IC50 and CC50 values were calculated with GraphPad Prism software.

A short description of series [3]: in vitro. Particulars: human.

As to `CCC(CC)COC(=O)[C@H](C)N[P@](=O)(OC[C@H]1O[C@@](C#N)(c2ccc3c(N)ncnn23)[C@H](O)[C@@H]1O)Oc1ccccc1` [Remdesivir], the IC50 in series [1] amounted to 3.9 µM; in series [2] (Human coronavirus 229E, MRC5, 72 h, read-out: Antiviral IC50) it was 0.0177 µM. The “Selectivity Index (CC50/IC50) (Based upon nM)” value in series [2] (HCoV-229E CPE assay) stood at 1508.76. Moreover, the CC50 in series [3] stood at 26.7 µM.
